Biological target: Plasmodium vivax geranylgeranyl diphosphate synthase (PvGGPPS) (Plasmodium vivax, UniProt A5K4U6)
Assay: X-ray co-crystal structure
Assay type: biochemical

CCCCCCCCCCOc1cccc(COc2ccc([N+](=O)[O-])cc2C(=O)O)c1 [BPH-1186]
IC50: 50 µM
